Assay results: patent publication US20250051277A1, “DELIVERY OF THERAPEUTIC ALKALOID COMPOUNDS” (Sensorium Therapeutics, Inc., priority 2021, published 2025)
Read-outs that look alike come from different tables or passages of the source.

Columns and labels:
[1] = 10 μM
[2] = 10 μM; remark: listed apart in the source

Compound	Prodrug (%) remaining, Human Plasma ([1]; 0 h)	Prodrug (%) remaining, Human Plasma ([1]; 10 min)	Prodrug (%) remaining, Human Plasma ([1]; 0.5 h)	Prodrug (%) remaining, Human Plasma ([1]; 1 h)	Prodrug (%) remaining, Human Plasma ([1]; 2 h)	Prodrug (%) remaining, Human Plasma ([1]; 4 h)	Prodrug (%) remaining, Rat Plasma ([2]; 0 h)	Prodrug (%) remaining, Rat Plasma ([2]; 10 min)	Prodrug (%) remaining, Rat Plasma ([2]; 0.5 h)	Prodrug (%) remaining, Rat Plasma ([2]; 1 h)	Prodrug (%) remaining, Rat Plasma ([2]; 2 h)	Prodrug (%) remaining, Rat Plasma ([2]; 4 h)
CCCC(CC)CC(=O)OC1=C[C@@H]2N(C)CC[C@]2(c2ccc(OC)c(OC)c2)CC1 (stereo partly drawn) [Compound 398, (3aS,7aS)-3a-(3,4-dimethoxyphenyl)-1-methyl-2,3,3a,4,5,7a-hexahydro-1H-indol-6-yl3-ethylhexanoate]	100.0%	96.4%	85.0%	72.4%	51.6%	25.5%	100.0%	2.8%	0.7%	0.1%	0.0%	0.0%
CCC(C)(CC)C(=O)OC1=C[C@@H]2N(C)CC[C@]2(c2ccc(OC)c(OC)c2)CC1 [Compound 430, (3aS,7aS)-3a-(3,4-dimethoxyphenyl)-1-methyl-2,3,3a,4,5,7a-hexahydro-1H-indol-6-yl2-ethyl-2-methylbutanoate]	100.0%	>99%	>99%	>99%	>99%	95.9%	100.0%	98.2%	98.3%	97.1%	94.1%	92.8%
CCCCCCCC(=O)OC1=C[C@@H]2N(C)CC[C@]2(c2ccc(OC)c(OC)c2)CC1 [Compound 395, (3aS,7aS)-3a-(3,4-dimethoxyphenyl)-1-methyl-2,3,3a,4,5,7a-hexahydro-1H-indol-6-yl octanoate]	100.0%	13.9%	3.5%	1.1%	0.3%	0.1%	100.0%	0.3%	0.1%	0.1%	0.1%	0.1%
COc1ccc([C@@]23CCC(OC(=O)CCN)=C[C@@H]2N(C)CC3)cc1OC [Compound 397, (3aS,7aS)-3a-(3,4-dimethoxyphenyl)-1-methyl-2,3,3a,4,5,7a-hexahydro-1H-indol-6-yl3-aminopropanoate]	100.0%	2.2%	0.5%	0.1%	0.2%	0.0%	100.0%	10.5%	0.5%	0.1%	0.1%	0.1%
COCCCCC(=O)OC1=C[C@@H]2N(C)CC[C@]2(c2ccc(OC)c(OC)c2)CC1 [Compound 404, (3aS,7aS)-3a-(3,4-dimethoxyphenyl)-1-methyl-2,3,3a,4,5,7a-hexahydro-1H-indol-6-yl5-methoxypentanoate]	100.0%	22.9%	11.5%	7.6%	3.8%	1.6%	100.0%	0.3%	0.3%	0.3%	0.3%	0.2%
CCCCCC(C)C(=O)OC1=C[C@@H]2N(C)CC[C@]2(c2ccc(OC)c(OC)c2)CC1 (stereo partly drawn) [Compound 400, (3aS,7aS)-3a-(3,4-dimethoxyphenyl)-1-methyl-2,3,3a,4,5,7a-hexahydro-1H-indol-6-yl2-methylheptanoate]	100.0%	34.7%	11.6%	5.2%	2.3%	1.9%	100.0%	12.6%	0.6%	0.1%	0.1%	0.0%
CCCCC(CC)C(=O)OC1=C[C@@H]2N(C)CC[C@]2(c2ccc(OC)c(OC)c2)CC1 (stereo partly drawn) [Compound 401, (3aS,7aS)-3a-(3,4-dimethoxyphenyl)-1-methyl-2,3,3a,4,5,7a-hexahydro-1H-indol-6-yl2-ethylhexanoate]	100.0%	95.9%	>99%	96.6%	94.4%	93.4%	100.0%	84.5%	55.8%	33.8%	16.3%	3.3%
CCC(C)(C)C(=O)OC1=C[C@@H]2N(C)CC[C@]2(c2ccc(OC)c(OC)c2)CC1 [Compound 428, (3aS,7aS)-3a-(3,4-dimethoxyphenyl)-1-methyl-2,3,3a,4,5,7a-hexahydro-1H-indol-6-yl2,2-dimethylbutanoate]	100.0%	82.9%	74.5%	69.1%	56.8%	46.0%	100.0%	90.3%	69.9%	41.7%	18.1%	3.9%
COc1ccc([C@@]23CCC(OC(=O)CCC(C)C)=C[C@@H]2N(C)CC3)cc1OC [Compound 399, (3aS,7aS)-3a-(3,4-dimethoxyphenyl)-1-methyl-2,3,3a,4,5,7a-hexahydro-1H-indol-6-yl4-methylpentanoate]	100.0%	5.6%	1.1%	0.5%	0.3%	0.2%	100.0%	0.0%	0.0%	0.0%	0.0%	0.0%
